From US20240400555A1 (Initial Therapeutics, Inc., priority 2023, published 2024)

Tested on: MV-4-11 cells
Experiment: Cell Viability Assay in MV-4-11 Cells
Type: cell-based
Details: Homo sapiens, MV4-11, 72 h, MV-4-11 cells, 72 h, Cell-Titer Glo; read-out: IC50
How it was run: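 MV-4-11 cells at 7,000/well in IMDM with 10% FBS, exposed to compound for 72 h. Viability by CellTiter-Glo luminescence, normalized to DMSO as 100%, fitted with a four-parameter curve.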

Row | SMILES | IC50
1 | NC(=O)c1ccc(-c2cc3c(N(C(=O)c4ccc(-n5nnc6cccnc65)cc4F)[C@@H]4CCCNC4)nccc3s2)cc1 [Example 448, N-[2-(4-carbamoylphenyl)thieno[3,2-c]pyridin-4-yl]-2-fluoro-N-[(3R)-3-piperidyl]-4-(triazolo[4,5-b]pyridin-3-yl)benzamide] | 52 nM
2 | NC(=O)c1ccc2c(N(C(=O)c3ccc(-n4nnc5cccnc54)cc3F)[C@@H]3CCCNC3)nccc2c1 [Example 453, (R)-1-(4-(3H-[1,2,3]triazolo[4,5-b]pyridin-3-yl)-2-fluoro-N-(piperidin-3-yl)benzamido)isoquinoline-6-carboxamide] | 200 nM
3 | CC(C)(C#N)c1cc(-c2cc3c(N(C(=O)c4ccc(-n5nnc6cccnc65)cc4F)[C@@H]4CCCNC4)nccc3s2)ccn1 [Example 463] | 320 nM
4 | Cc1csc2ccnc(N(C(=O)c3ccc(Nc4ncccn4)cc3F)[C@@H]3CCCNC3)c12 [Example 468, (R)-2-fluoro-N-(3-methylthieno[3,2-c]pyridin-4-yl)-N-(piperidin-3-yl)-4-(pyrimidin-2-ylamino)benzamide] | 120 nM
5 | Cn1cc(-c2ccc(C(=O)N(c3nccc4cc(F)ccc34)[C@@H]3CCCNC3)c(F)c2)nn1 [Example 469, (R)-2-fluoro-N-(6-fluoroisoquinolin-1-yl)-4-(1-methyl-1H-1,2,3-triazol-4-yl)-N-(piperidin-3-yl)benzamide] | 180 nM
6 | Cn1cc(-c2ccc(C(=O)N(c3nccc4cc(Cl)ccc34)[C@@H]3CCCNC3)c(F)c2)nn1 [Example 470, N-(6-chloro-1-isoquinolyl)-2-fluoro-4-(1-methyltriazol-4-yl)-N-[(3R)-3-piperidyl]benzamide] | 91 nM
7 | COc1ccc2c(N(C(=O)c3ccc(-c4cn(C)nn4)cc3F)[C@@H]3CCCNC3)nccc2c1 [Example 471, (R)-2-fluoro-N-(6-methoxyisoquinolin-1-yl)-4-(1-methyl-1H-1,2,3-triazol-4-yl)-N-(piperidin-3-yl)benzamide] | 240 nM
8 | Cn1cc(-c2ccc(C(=O)N(c3nccc4cc(C#N)ccc34)[C@@H]3CCCNC3)c(F)c2)nn1 [Example 472, (R)—N-(6-cyanoisoquinolin-1-yl)-2-fluoro-4-(1-methyl-1H-1,2,3-triazol-4-yl)-N-(piperidin-3-yl)benzamide] | 580 nM
9 | Cc1cccc2ccnc(N(C(=O)c3ccc(Nc4ncncn4)cc3F)[C@@H]3CCCNC3)c12 [Example 473, (R)-4-((1,3,5-triazin-2-yl)amino)-2-fluoro-N-(8-methylisoquinolin-1-yl)-N-(piperidin-3-yl)benzamide] | 300 nM
10 | Cc1cc(F)cc2ccnc(N(C(=O)c3ccc(-c4cn(C)nn4)cc3F)[C@@H]3CCCNC3)c12 [Example 474, (R)-2-fluoro-N-(6-fluoro-8-methylisoquinolin-1-yl)-4-(1-methyl-1H-1,2,3-triazol-4-yl)-N-(piperidin-3-yl)benzamide] | 9.9 nM
11 | Cn1cc(-c2ccc(C(=O)N(c3nccc4sc(Br)cc34)[C@@H]3CCCNC3)cc2O)cn1 [Example 475, N-(2-bromothieno[3,2-c]pyridin-4-yl)-3-hydroxy-4-(1-methylpyrazol-4-yl)-N-[(3R)-3-piperidyl] benzamide] | 4600 nM
12 | Cn1cc(-c2ccc(C(=O)N(c3nccc4sc(C#CCCCO)cc34)[C@@H]3CCCNC3)cc2O)cn1 [Example 476, 3-hydroxy-N-[2-(5-hydroxypent-1-ynyl)thieno[3,2-c]pyridin-4-yl]-4-(1-methylpyrazol-4-yl)-N-[(3R)-3-piperidyl] benzamide] | 220 nM
13 | Cn1cc(-c2ccc(C(=O)N(c3nccc4sc(C#N)cc34)[C@@H]3CCCNC3)c(F)c2)nn1 [Example 477, N-(2-cyanothieno [3,2-c]pyridin-4-yl)-2-fluoro-4-(1-methyltriazol-4-yl)-N-[(3R)-3-piperidyl] benzamide] | 2800 nM

Continued, values first:

Row | IC50 | SMILES
14 | 110 nM | NC(=O)Cc1cccc(-c2cc3c(N(C(=O)c4ccc(-n5nnc6cccnc65)cc4F)[C@@H]4CCCNC4)nccc3s2)c1 [Example 447, N-[2-[3-(2-amino-2-oxo-ethyl)phenyl]thieno[3,2-c]pyridin-4-yl]-2-fluoro-N-[(3R)-3-piperidyl]-4-(triazolo[4,5-b]pyridin-3-yl)benzamide]
15 | 940 nM | O=C(c1ccc(-n2nnc3cccnc32)cc1F)N(c1nccc2sc(-c3cccc(-c4ncco4)c3)cc12)[C@@H]1CCCNC1 [Example 449, 2-fluoro-N-[2-(3-oxazol-2-ylphenyl)thieno [3,2-c]pyridin-4-yl]-N-[(3R)-3-piperidyl]-4-(triazolo [4,5-b]pyridin-3-yl) benzamide]
16 | 300 nM | O=C(c1ccc(-n2nnc3cccnc32)cc1F)N(c1nccc2sc(-c3nc4ccccn4n3)cc12)[C@@H]1CCCNC1 [Example 450, 2-fluoro-N-[(3R)-3-piperidyl]-N-[2-([1,2,4]triazolo[1,5-a]pyridin-2-yl)thieno[3,2-c]pyridin-4-yl]-4-(triazolo[4,5-b]pyridin-3-yl)benzamide]
17 | 250 nM | O=C(c1ccc(-n2nnc3cccnc32)cc1F)N(c1nccc2sc(-c3cnccn3)cc12)[C@@H]1CCCNC1 [Example 451, 2-fluoro-N-[(3R)-3-piperidyl]-N-(2-pyrazin-2-ylthieno[3,2-c]pyridin-4-yl)-4-(triazolo[4,5-b]pyridin-3-yl)benzamide]
18 | 180 nM | NC(=O)c1cccc(-c2cc3c(N(C(=O)c4ccc(-n5nnc6cccnc65)cc4F)[C@@H]4CCCNC4)nccc3s2)c1 [Example 452, N-[2-(3-carbamoylphenyl)thieno[3,2-c]pyridin-4-yl]-2-fluoro-N-[(3R)-3-piperidyl]-4-(triazolo[4,5-b]pyridin-3-yl)benzamide]
19 | 1000 nM | O=C(c1ccc(-n2nnc3cccnc32)cc1F)N(c1nccc2sc(-c3ccc(C(F)(F)F)nc3)cc12)[C@@H]1CCCNC1 [Example 454, 2-fluoro-N-[(3R)-3-piperidyl]-4-(triazolo[4,5-b]pyridin-3-yl)-N-[2-[6-(trifluoromethyl)-3-pyridyl]thieno[3,2-c]pyridin-4-yl]benzamide]
20 | 650 nM | O=C(c1ccc(-n2nnc3cccnc32)cc1F)N(c1nccc2sc(-c3ccnnc3)cc12)[C@@H]1CCCNC1 [Example 455, 2-fluoro-N-[(3R)-3-piperidyl]-N-(2-pyridazin-4-ylthieno[3,2-c]pyridin-4-yl)-4-(triazolo[4,5-b]pyridin-3-yl)benzamide]
21 | 380 nM | O=C(c1ccc(-n2nnc3cccnc32)cc1F)N(c1nccc2sc(-c3ccncn3)cc12)[C@@H]1CCCNC1 [Example 456, 2-fluoro-N-[(3R)-3-piperidyl]-N-(2-pyrimidin-4-ylthieno[3,2-c]pyridin-4-yl)-4-(triazolo[4,5-b]pyridin-3-yl)benzamide]
22 | 290 nM | Nc1nccc(-c2cc3c(N(C(=O)c4ccc(-n5nnc6cccnc65)cc4F)[C@@H]4CCCNC4)nccc3s2)n1 [Example 457, N-[2-(2-aminopyrimidin-4-yl)thieno[3,2-c]pyridin-4-yl]-2-fluoro-N-[(3R)-3-piperidyl]-4-(triazolo[4,5-b]pyridin-3-yl)benzamide]
23 | 390 nM | CN(C)c1nccc(-c2cc3c(N(C(=O)c4ccc(-n5nnc6cccnc65)cc4F)[C@@H]4CCCNC4)nccc3s2)n1 [Example 458, N-[2-[2-(dimethylamino)pyrimidin-4-yl]thieno[3,2-c]pyridin-4-yl]-2-fluoro-N-[(3R)-3-piperidyl]-4-(triazolo[4,5-b]pyridin-3-yl)benzamide]
24 | 430 nM | O=C(c1ccc(-n2nnc3cccnc32)cc1F)N(c1nccc2sc(-c3cc[nH]c(=O)c3)cc12)[C@@H]1CCCNC1 [Example 459, 2-fluoro-N-[2-(2-oxo-1H-pyridin-4-yl)thieno[3,2-c]pyridin-4-yl]-N-[(3R)-3-piperidyl]-4-(triazolo[4,5-b]pyridin-3-yl)benzamide]
25 | 220 nM | COc1cc(-c2cc3c(N(C(=O)c4ccc(-n5nnc6cccnc65)cc4F)[C@@H]4CCCNC4)nccc3s2)ccn1 [Example 460, 2-fluoro-N-[2-(2-methoxy-4-pyridyl)thieno[3,2-c]pyridin-4-yl]-N-[(3R)-3-piperidyl]-4-(triazolo[4,5-b]pyridin-3-yl)benzamide]
26 | 720 nM | CCc1cc(-c2cc3c(N(C(=O)c4ccc(-n5nnc6cccnc65)cc4F)[C@@H]4CCCNC4)nccc3s2)ccn1 [Example 461, N-[2-(2-ethyl-4-pyridyl)thieno[3,2-c]pyridin-4-yl]-2-fluoro-N-[(3R)-3-piperidyl]-4-(triazolo[4,5-b]pyridin-3-yl)benzamide]
27 | 1000 nM | O=C(c1ccc(-n2nnc3cccnc32)cc1F)N(c1nccc2sc(-c3ccnc(C(F)(F)F)c3)cc12)[C@@H]1CCCNC1 [Example 462, 2-fluoro-N-[(3R)-3-piperidyl]-4-(triazolo[4,5-b]pyridin-3-yl)-N-[2-[2-(trifluoromethyl)-4-pyridyl]thieno[3,2-c]pyridin-4-yl]benzamide]
28 | 640 nM | O=C(c1ccc(-n2nnc3cccnc32)cc1F)N(c1nccc2sc(-c3ccccc3)cc12)[C@@H]1CCCNC1 [Example 464, 2-fluoro-N-(2-phenylthieno[3,2-c]pyridin-4-yl)-N-[(3R)-3-piperidyl]-4-(triazolo[4,5-b]pyridin-3-yl)benzamide]
29 | 240 nM | O=C(c1ccc(-n2nnc3cccnc32)cc1F)N(c1nccc2sc(Cc3cccnc3)cc12)[C@@H]1CCCNC1 [Example 465, 2-fluoro-N-[(3R)-3-piperidyl]-N-[2-(3-pyridylmethyl)thieno[3,2-c]pyridin-4-yl]-4-(triazolo[4,5-b]pyridin-3-yl)benzamide]
30 | 440 nM | O=C(c1ccc(-n2nnc3cccnc32)cc1F)N(c1nccc2sc(Cc3ccccc3)cc12)[C@@H]1CCCNC1 [Example 466, N-(2-benzylthieno[3,2-c]pyridin-4-yl)-2-fluoro-N-[(3R)-3-piperidyl]-4-(triazolo[4,5-b]pyridin-3-yl)benzamide]
31 | 220 nM | O=Cc1cccc(-c2cc3c(N(C(=O)c4ccc(-n5nnc6cccnc65)cc4F)[C@@H]4CCCNC4)nccc3s2)c1 [Example 467, 2-fluoro-N-[2-(3-formylphenyl)thieno[3,2-c]pyridin-4-yl]-N-[(3R)-3-piperidyl]-4-(triazolo[4,5-b]pyridin-3-yl)benzamide]
